According to article PMC5942814 (PLoS ONE, 2018):
Several values for one entry are separate records, joined by “and”; a condition that tells them apart may be missing. Equal values may be shown once. Entries after “also recorded” stand apart in the source; their conditions may differ.

What was measured:
[1] = Pharmacokinetics of SNF472 administered as an i.v. bolus; type: in vivo, Wistar rats; settings: for C0: rat plasma phytate, extrapolated concentration at time 0
Description: Blood was collected at 5, 15, 60 and 120 min.
(§1) Due to the limitations in obtaining many sequential blood samples from rats, blood samples were only acquired from each animal at three of the nine time-points. Consequently, the area under the curves (AUCs) could not be determined for individual animals and mean AUCs were therefore used to assess dose linearity.
(§2) Following sampling, blood was collected into K3EDTA anticoagulant tubes, centrifuged at 3,500 rpm for 10 min at 4 °C and stored at -80°C pending quantification via UPLC®-MS using the method described by Tur et al.

[2] = test system: vitamin D3-induced cardiovascular calcification; assay: Prevention of calcification induced by vitamin D; type: in vivo, Sprague Dawley rats
Description: Experiments were performed with 20 male Crl:OF Sprague Dawley rats weighing ± 350 g (Charles River Laboratories International, Inc. L’Arbresle, France). Animals were divided into four groups. […] Calcification was induced by 5 consecutive daily oral administrations of 75 kIU/kg vitamin D3 (Fort Dodge, Girona, Spain), starting on day 3 of treatment. Five sham-treated animals with no calcification induction served as controls. Rats were sacrificed 14 days after induction of calcification, and organs collected. Blood was obtained via heart puncture in anesthetized animals immediately before sacrifice.
(§3) Aorta and heart were removed at sacrifice, lyophilized for 24 h and weighed. Lyophilized organs were digested using a 1:1 HNO3:HClO4 mixture in a dry bath incubator for 2–4 h at 180°C and subsequently diluted with MilliQ™ water to a final volume of 10 ml. Calcium and phosphorus contents in serum, heart and aorta were quantified via inductively coupled plasma optical emission spectrometry (ICP-OES) (Perkin-Elmer SL, Optima 5300DV spectrometer)[26].

[3] = Pharmacokinetics of SNF472 administered as a s.c. bolus; type: in vivo, Wistar rats; settings: rat
Description: as §1, §2

[4] = test system: vitamin D3-induced cardiovascular calcification (progression); assay: Inhibition of calcification progression induced by vitamin D; type: in vivo, Sprague Dawley rats; settings: 10 and 60 mg/kg s.c. daily
Description: Experiments were performed with 48 male Crl:OF Sprague Dawley rats weighing ± 250 g (Charles River Laboratories International, Inc. L’Arbresle, France) divided into 6 groups. Calcification was induced by 3 consecutive daily s.c. administrations of 100 kIU/kg vitamin D3 (Fort Dodge, Girona, Spain). Four groups were used as controls to evaluate calcification progression throughout the 14 days of study. The animals received daily s.c. injections of vehicle (NaCl 0.9%), starting 5 days after calcification induction. […] Group 1 animals were sacrificed on day 5 to evaluate calcification. Groups 2 and 3 were sacrificed on days 9 and 12, respectively, to follow the progression of calcification in control animals. Groups 4, 5 and 6 were sacrificed on day 14. Blood was obtained via heart puncture in anesthetized animals immediately before sacrifice.
as §3

[5] = Pharmacokinetics of SNF472 via 4 h i.v. infusion in control rats; type: in vivo, Wistar rats; settings: for AUC(0→t) / Cmax: Day 1 (control) rats
Description: (§4) The experiment was performed based on a model described by Terai and co-workers[27]. Uremia was induced in 10 male Wistar rats weighing ± 275 g via 10 daily oral administrations of 600 mg/kg adenine (days 1–10). Two further oral doses of 300 ng/kg α-calcidol were administered on days 11 and 13.
as §1, §2

[6] = test system: cardiovascular calcification in adenine-induced uremic rats; assay: Inhibition of calcification in a rat model of uremia (adenine + α-calcidol); type: in vivo, Wistar rats
Description: as §2
All rats were treated daily with adenine (600 mg/kg, suspended in 1% carboxymethyl cellulose, administered orally) for the first 10 days to induce uremia and α-calcidol (300 ng/kg in olive oil, administered orally) three times a week from days 11 to 19 to accelerate and homogenize the development of cardiovascular calcification. On day 19, all surviving animals were sacrificed and blood and tissue samples collected. Blood was obtained via heart puncture in anesthetized animals immediately before sacrifice.
as §3, with “Lyophilized” for “Aorta and heart were removed at sacrifice, lyophilized for 24 h and weighed. Lyophilized”
Alkaline phosphatase (ALP) activity (ref. OSR6103), and creatinine (OSR6178) and urea (ref. OSR6134) levels were determined in serum using the Beckman Coulter assay kit (Brea, CA, USA).

[7] = Pharmacokinetics of SNF472 via 4 h i.v. infusion in adenine-induced uremic rats; type: in vivo, Wistar rats; settings: for AUC(0→t) / Cmax: Day 13 (uremic) rats
Description: as §4, §1, §2

[8] = single i.v. bolus 10 mg/kg, rat
[9] = 1 mg/kg i.v. every other day (e.o.d.)
[10] = 50 mg/kg 4 h i.v. infusion daily, uremic rats
[11] = 4 h i.v. infusion 10 mg/kg, uremic rats

SMILES: O=P([O-])(O)OC1C(OP(=O)([O-])O)C(OP(=O)([O-])O)C(OP(=O)([O-])O)C(OP(=O)([O-])O)C1OP(=O)([O-])O.[Na+].[Na+].[Na+].[Na+].[Na+].[Na+] (centres unmarked) [SNF472, hexasodium salt of myo-inositol hexaphosphate]
- AUC(0→t) ([1]; single i.v. bolus 1 mg/kg, rat): 3491 ng·h/mL
- Cl ([1]; single i.v. bolus 1 mg/kg, rat): 0.29 L/h/kg
- MRT (0→∞) ([1]; single i.v. bolus 1 mg/kg, rat): 99 min
- C0 ([1]; single i.v. bolus 1 mg/kg): 36.775 µg/mL
- AUC(0→t) ([1]; single i.v. bolus 5 mg/kg, rat): 19234 ng·h/mL
- MRT (0→∞) ([1]; single i.v. bolus 5 mg/kg, rat): 19.8 min
- C0 ([1]; single i.v. bolus 5 mg/kg): 84.561 µg/mL
- AUC(0→t) [1, 8]: 38752 ng·h/mL
- MRT (0→∞) [1, 8]: 11.4 min
- C0 ([1]; single i.v. bolus 10 mg/kg): 156.75 µg/mL
- inhibition of aorta calcium vs vehicle ([2]; 1 mg/kg i.v. daily): 60%
- inhibition of heart calcium vs vehicle ([2]; 1 mg/kg i.v. daily): 74% and 74.4%
- serum phosphorus ([2]; 1 mg/kg i.v. daily, control 14.75 mg/dL, significantly increased): 18.96 mg/dL
- mean heart calcium content ([2]; 1 mg/kg i.v. daily, vitamin D3 75 kIU/kg p.o. x5, vehicle 3.35 mg/g): 1.06 mg/g
- mean aortic calcium content ([2]; 1 mg/kg i.v. daily, vitamin D3 75 kIU/kg p.o. x5, vehicle 91.1 mg/g): 36.8 mg/g
- serum calcium ([2]; 1 mg/kg i.v. daily, vs sham (8.72 mg/dL) and vitamin D control (10.50 mg/dL)): statistically significant higher levels than sham and control groups
- inhibition of aorta calcium vs vehicle [2, 9]: 56.2%
- inhibition of heart calcium vs vehicle [2, 9]: 70.4%
- inhibition of CVC in non-uremic rats ([2]; non-uremic rats, vitamin D3 model): 60–70%
- AUC(0→t) ([3]; single s.c. bolus 10 mg/kg): 1633 ng·h/mL
- Cl/F ([3]; single s.c. bolus 10 mg/kg): 0.22 L/h/kg
- Cmax ([3]; single s.c. bolus 10 mg/kg): 4.876 µg/mL
- MRT (0→∞) ([3]; single s.c. bolus 10 mg/kg): 28.2 min
- AUC(0→t) ([3]; single s.c. bolus 30 mg/kg): 32646 ng·h/mL
- Cl/F ([3]; single s.c. bolus 30 mg/kg): 0.27 L/h/kg
- Cmax ([3]; single s.c. bolus 30 mg/kg): 61.014 µg/mL
- MRT (0→∞) ([3]; single s.c. bolus 30 mg/kg): 28.8 min
- AUC(0→t) ([3]; single s.c. bolus 100 mg/kg): 139603 ng·h/mL
- Cl/F ([3]; single s.c. bolus 100 mg/kg): 0.21 L/h/kg
- Cmax ([3]; single s.c. bolus 100 mg/kg): 263.264 µg/mL
- MRT (0→∞) ([3]; single s.c. bolus 100 mg/kg): 29.4 min
- serum calcium levels [4]: not significantly affected
- serum phosphorus levels on day 14 vs control [4]: No differences
- progression of cardiac calcification ([4]; started 5 days after calcification induction): completely blocked; also recorded: completely inhibited further progression
- AUC(0→t) ([5]; 4 h i.v. infusion 10 mg/kg): 16027 ng·h/mL
- Cmax ([5]; 4 h i.v. infusion 10 mg/kg, maximum at 240 min): 5548 ng/mL
- steady state during the infusion period ([5]; 4 h i.v. infusion 10 mg/kg, control rats): steady state was not achieved
- AUC(0→t) ([5]; 4 h i.v. infusion 50 mg/kg): 145212 ng·h/mL
- Cmax ([5]; 4 h i.v. infusion 50 mg/kg): 45141 ng/mL
- time at which steady state was reached ([5]; 4 h i.v. infusion 50 mg/kg, control rats): 60 min
- mortality (animals died) ([6]; 50 mg/kg 4 h i.v. infusion daily, 12 uremic rats per group, 4 died in control group): 7 animals
- inhibition of development of calcification in aorta [6, 10]: up to 80%
- mortality vs control group [6, 10]: no significant differences
- serum creatinine vs control [6, 10]: No significant differences
- serum urea vs control [6, 10]: No significant differences
- circulating (serum) phosphorus ([6]; 50 mg/kg 4 h i.v. infusion daily, uremic rats, control 17.6 mg/dL, not significant): 19.9 mg/dL
- mean serum ALP activity ([6]; 50 mg/kg 4 h i.v. infusion daily, uremic rats, control 295 U/L, not significant): 725 U/L
- median heart calcium content ([6]; 50 mg/kg 4 h i.v. infusion daily, uremic rats, control median 1.6 mg/g): 0.2 mg/g
- median aorta calcium content ([6]; 50 mg/kg 4 h i.v. infusion daily, uremic rats, control median 65.0 mg/g): 12.8 mg/g
- reduction in serum calcium levels ([6]; 50 mg/kg 4 h i.v. infusion daily, uremic rats, significant vs control): 17%
- signs of hypocalcemia (dyspnea, muscle spasms, convulsions) ([6]; 50 mg/kg 4 h i.v. infusion, uremic rats): no signs of hypocalcemia
- circulating phytate levels ([6]; non-uremic animals (day 0), end of 4 h i.v. infusion 50 mg/kg): ~ 150,000 ng/mL
- decrease in circulating phytate ([6]; uremic animals, during and after 4 h of SNF472 infusion): 90%
- AUC(0→t) ([7]; 4 h i.v. infusion 10 mg/kg): 3877 ng·h/mL
- Cmax ([7]; 4 h i.v. infusion 10 mg/kg, level at 240 min): 1877 ng/mL
- time at which low-level steady state was observed [7, 11]: 60 min
- time at which maximum levels were reached [7, 11]: ≤ 30 min
- AUC(0→t) ([7]; 4 h i.v. infusion 50 mg/kg): 51665 ng·h/mL
- Cmax ([7]; 4 h i.v. infusion 50 mg/kg): 16218 ng/mL
